# Results taken from ChEMBL document CHEMBL6134800, “Applications of innovative synthetic strategies in anticancer drug discovery: The driving force of new chemical reactions” (Bioorg Med Chem Lett, 2025).
# Assays:
# BXPC-3 = experiment: Antiproliferative activity against human BXPC-3 cells assessed as reduction in cell growth incubated for 72 hrs by MTT assay; assay type: functional, cell-based; conditions: Homo sapiens, BXPC-3, 72 h
# A549 [1] = experiment: Antiproliferative activity against human A549 cells assessed as reduction in cell viability incubated for 24 hrs by MTT assay; assay type: functional, cell-based; conditions: A549, 24 h
# HCT-116 [2] = experiment: Antiproliferative activity against human HCT-116 cells assessed as reduction in cell viability incubated for 24 hrs by MTT assay; assay type: functional, cell-based; conditions: HCT-116, 24 h
# HeLa [3] = experiment: Antiproliferative activity against human HeLa cells assessed as reduction in cell viability incubated for 24 hrs by MTT assay; assay type: functional, cell-based
# HeLa [4] = experiment: Antiproliferative activity against human HeLa cells assessed as reduction in cell growth by MTT assay; assay type: functional, cell-based
# A549 [5] = experiment: Antiproliferative activity against human A549 cells assessed as reduction in cell growth by MTT assay; assay type: functional, cell-based
# HeLa [6] = experiment: Antiproliferative activity against human HeLa cells assessed as reduction in cell viability incubated for 48 hrs by MTT assay; assay type: functional, cell-based
# MCF7 [7] = experiment: Cytotoxicity against human MCF7 cells assessed as reduction in cell viability by MTT assay; assay type: functional, cell-based
# A549 [8] = experiment: Cytotoxicity against human A549 cells assessed as reduction in cell viability by MTT assay; assay type: functional, cell-based
# [9] = Cytotoxicity against human BEAS-2B cells assessed as reduction in cell viability by MTT assay; assay type: toxicity, cell-based
# A549 [10] = experiment: Growth inhibition of human A549 cells measured for 48 hrs by SRB assay; assay type: functional
# [11] = Antioxidant activity assessed as hydroxyl radical scavenging activity; assay type: functional
# MCF7 [12] = experiment: Growth inhibition of human MCF7 cells measured for 48 hrs by SRB assay; assay type: functional
# PC-3 = experiment: Growth inhibition of human PC-3 cells measured for 48 hrs by SRB assay; assay type: functional
# HepG2 [13] = experiment: Growth inhibition of human HepG2 cells measured for 48 hrs by SRB assay; assay type: functional
# [14] = Antioxidant activity assessed as DPPH radical scavenging activity; assay type: functional
# DU-145 = experiment: Cytotoxicity against human DU-145 cells assessed as reduction in cell viability incubated for 48 hrs by SRB assay; assay type: functional, cell-based; conditions: DU-145, 48 h
# MDA-MB-231 [15] = experiment: Cytotoxicity against human MDA-MB-231 cells assessed as reduction in cell viability incubated for 48 hrs by SRB assay; assay type: functional, cell-based; conditions: MDA-MB-231, 48 h
# HeLa [16] = experiment: Cytotoxicity against human HeLa cells assessed as reduction in cell viability incubated for 48 hrs by SRB assay; assay type: functional, cell-based
# HepG2 [17] = experiment: Cytotoxicity against human HepG2 cells assessed as reduction in cell viability incubated for 48 hrs by SRB assay; assay type: functional, cell-based; conditions: HepG2, 48 h
# MCF7 [18] = experiment: Antiproliferative activity against human MCF7 cells; assay type: functional, cell-based
# T47D = experiment: Antiproliferative activity against human T47D cells; assay type: functional, cell-based
# MDA-MB-231 [19] = experiment: Antiproliferative activity against human MDA-MB-231 cells; assay type: functional, cell-based
# LoVo = experiment: Antiproliferative activity against human LoVo cells; assay type: functional, cell-based
# HCT-116 [20] = experiment: Antiproliferative activity against human HCT-116 cells; assay type: functional, cell-based
# Escherichia coli = experiment: Antimicrobial activity against Escherichia coli assessed as reduction in microbial growth; assay type: functional, organism-based
# NIH3T3 = experiment: Cytotoxicity against mouse NIH/3T3 cells assessed as reduction in cell growth by resazurin assay; assay type: functional, cell-based
# A549 [21] = experiment: Cytotoxicity against human A549 cells assessed as reduction in cell growth by resazurin assay; assay type: functional, cell-based
# HL-60 = experiment: Cytotoxicity against human HL-60 cells assessed as reduction in cell growth by resazurin assay; assay type: functional, cell-based
# Bacillus subtilis = experiment: Antibacterial activity against Bacillus subtilis assessed as reduction in bacterial growth; assay type: functional, organism-based
# [22] = biological target: Cyclin-dependent kinases regulatory subunit 1/S-phase kinase-associated protein 2 (Homo sapiens) (UniProt P61024+Q13309); experiment: Inhibition of SKP2/CKS1 (unknown origin) protein-protein interaction at 50 uM relative to control; assay type: protein assay
# Sequence of Cyclin-dependent kinases regulatory subunit 1/S-phase kinase-associated protein 2 (Homo sapiens) (P61024 2-79 limits assumed): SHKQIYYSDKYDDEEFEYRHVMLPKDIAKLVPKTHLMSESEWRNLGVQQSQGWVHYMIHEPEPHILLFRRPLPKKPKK
# Sequence of Cyclin-dependent kinases regulatory subunit 1/S-phase kinase-associated protein 2 (Homo sapiens) (Q13309 whole entry partner): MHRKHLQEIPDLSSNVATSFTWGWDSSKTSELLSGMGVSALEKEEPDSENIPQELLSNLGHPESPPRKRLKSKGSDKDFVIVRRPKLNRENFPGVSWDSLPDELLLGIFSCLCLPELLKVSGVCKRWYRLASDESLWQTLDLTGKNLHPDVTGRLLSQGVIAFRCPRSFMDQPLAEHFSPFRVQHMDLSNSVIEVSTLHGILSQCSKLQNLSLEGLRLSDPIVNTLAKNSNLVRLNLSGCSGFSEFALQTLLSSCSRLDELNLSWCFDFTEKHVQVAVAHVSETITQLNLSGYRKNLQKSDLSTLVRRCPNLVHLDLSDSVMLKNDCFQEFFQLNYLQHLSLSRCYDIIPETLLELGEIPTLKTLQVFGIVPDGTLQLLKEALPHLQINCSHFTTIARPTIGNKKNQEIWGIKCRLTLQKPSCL
structure (smiles),measurement,setting,value
Cc1ccc([C@@H]2NC(=O)n3c(cc4ccccc43)C23CC3)cc1,IC50,BXPC-3,1700 nM
COc1ccc(C2c3ccccc3-c3nc(C)cc(C(F)(F)F)c32)cc1OC (stereo unspecified),IC50,A549 [1],19.5 µM
same,IC50,HCT-116 [2],15.4 µM
same,IC50,HeLa [3],5520 nM
Cc1c2n(c3ccccc13)C(O)(C(F)(F)F)C=C2c1ccccc1 (stereo unspecified),IC50,HeLa [4],31.6 µM
same,IC50,A549 [5],1260 nM
Cc1nn(-c2ccccc2Cl)c(O)c1-c1ccccc1C1=Nc2ccccc2C1(C)C,IC50,HeLa [6],26.7 µM
COC(=O)c1nc2nc(Oc3ccccc3)c(C#N)c(-c3ccc(OC)cc3)c2c(N)c1C(=O)OC,IC50,MCF7 [7],48.2 µg/mL
same,IC50,A549 [8],10.1 µg/mL
same,IC50,[9],51.3 µg/mL
COc1ccc(C2c3ccccc3-c3nc(C)cc(C(F)(F)F)c32)cc1 (stereo unspecified),IC50,A549 [1],12.3 µM
same,IC50,HCT-116 [2],14.9 µM
same,IC50,HeLa [3],6650 nM
O=C1/N=C2/c3ccccc3C(=O)C23C(=C(c2cccs2)N2CCc4cccc3c42)C(=O)c2ccccc21 (stereo unspecified),IC50,A549 [1],9.18 µM
same,IC50,HCT-116 [2],1.63 µM
same,IC50,HeLa [3],1600 nM
CCc1cc(C(=O)c2ccccc2Cl)c(NC(c2cccs2)c2c(O)ccc3ccccc23)s1 (stereo unspecified),GI50,A549 [10],< 10 µg/mL
same,IC50,[11],34.8 µM
same,GI50,MCF7 [12],< 10 µg/mL
same,GI50,PC-3,< 10 µg/mL
same,GI50,HepG2 [13],< 10 µg/mL
same,IC50,[14],32.1 µM
Cc1cc(C(F)(F)F)c2c(n1)-c1ccccc1C2c1ccsc1 (stereo unspecified),IC50,A549 [1],> 50 µM
same,IC50,HCT-116 [2],> 50 µM
same,IC50,HeLa [3],2320 nM
COc1ccccc1C1=C2C(=O)c3ccccc3C(=O)/N=C3/c4ccccc4C(=O)C23c2cccc3c2N1CC3 (stereo unspecified),IC50,A549 [1],8.43 µM
same,IC50,HCT-116 [2],2.1 µM
same,IC50,HeLa [3],1540 nM
Nc1ccn([C@@H]2O[C@H](CO)[C@@H](O)C2(F)F)c(=O)n1 [GEMCITABINE],IC50,BXPC-3,2300 nM
COc1cccc2c1C(=O)c1c(O)c3c(c(O)c1C2=O)C[C@@](O)(C(=O)CO)C[C@@H]3O[C@H]1C[C@H](N)[C@H](O)[C@H](C)O1.Cl [DOXORUBICIN HYDROCHLORIDE],IC50,DU-145,3.82 µg/mL
same,IC50,MDA-MB-231 [15],8.64 µg/mL
same,IC50,HeLa [16],12.6 µg/mL
same,IC50,HepG2 [17],26.7 µg/mL
C=C1N(S(=O)(=O)c2ccc(C)cc2)c2ccccc2[C@@]1(C)N,IC50,MCF7 [18],16.1 µM
same,IC50,T47D,17.7 µM
same,IC50,MDA-MB-231 [19],6.66 µM
same,IC50,LoVo,> 25 µM
same,IC50,HCT-116 [20],> 25 µM
O=NN(CCCl)C(=O)NCCCl [CARMUSTINE],IC50,MCF7 [7],9.34 µg/mL
same,IC50,A549 [8],6.35 µg/mL
same,IC50,[9],6.52 µg/mL
Cc1cc(C)cc(P(=O)(c2cc(C)cc(C)c2)C2C(C#N)=C(N)Oc3c(Br)cccc32)c1 (stereo unspecified),IC50,Escherichia coli,> 10 µM
same,IC50,NIH3T3,> 30 µM
same,IC50,A549 [21],> 30 µM
same,IC50,HL-60,9.8 µM
same,IC50,Bacillus subtilis,> 10 µM
Cc1ccc(C2NC(=O)n3c(cc4ccccc43)C23CC3)cc1 (racemic),IC50,BXPC-3,3100 nM
C=C1N(S(=O)(=O)c2ccc(C)cc2)c2ccccc2[C@]1(C)N,IC50,MCF7 [18],2.21 µM
same,IC50,T47D,2.88 µM
same,IC50,MDA-MB-231 [19],2.15 µM
same,IC50,LoVo,3.65 µM
same,IC50,HCT-116 [20],4.3 µM
Cc1cc(C)cc(P(=O)(c2cc(C)cc(C)c2)C2C(C#N)=C(N)Oc3ccc(F)cc32)c1 (stereo unspecified),IC50,Escherichia coli,> 10 µM
same,IC50,NIH3T3,> 30 µM
same,IC50,A549 [21],> 30 µM
same,IC50,HL-60,10.1 µM
same,IC50,Bacillus subtilis,5.03 µM
COc1cc(OC)c(-c2cc(CC3c4ccccc4C(=O)N3c3ccc(C)cc3)nc3ncnn23)c(OC)c1 (stereo unspecified),inhibition,[22],45%
CCc1cc(C(=O)c2ccccc2Cl)c(NC(c2cc(OC)c(OC)c(OC)c2)c2c(O)ccc3ccccc23)s1 (stereo unspecified),GI50,A549 [10],< 10 µg/mL
same,IC50,[11],32.8 µM
same,GI50,MCF7 [12],< 10 µg/mL
same,GI50,PC-3,< 10 µg/mL
same,GI50,HepG2 [13],< 10 µg/mL
same,IC50,[14],33.5 µM
CN[C@@H]1[C@@H](O)[C@@H](O[C@@H]2[C@@H](O)[C@H](O[C@H]3O[C@H](CN)CC[C@H]3N)[C@@H](N)C[C@H]2N)OC[C@]1(C)O [GENTAMICIN C1A],IC50,Bacillus subtilis,0.115 µM
COc1cc(OC)c(-c2cc(CC3c4ccccc4C(=O)N3c3ccc(Br)cc3)nc3ncnn23)c(OC)c1 (stereo unspecified),inhibition,[22],57%
